Reference: US12187723B2 (BRISTOL-MYERS SQUIBB COMPANY, priority 2019, dated 2025)

These compounds were tested against T1, human TLR8 (Homo sapiens, UniProt Q9NR97) (assay: TLR8 inhibition reporter assay (HEK-Blue SEAP)). Details: HEK-Blue cells overexpressing human TLR8, R848 15.9 μM, 22 hour incubation.
T1 construct: host or cells: HEK-Blue cells
T1 sequence (Q9NR97 27-1041): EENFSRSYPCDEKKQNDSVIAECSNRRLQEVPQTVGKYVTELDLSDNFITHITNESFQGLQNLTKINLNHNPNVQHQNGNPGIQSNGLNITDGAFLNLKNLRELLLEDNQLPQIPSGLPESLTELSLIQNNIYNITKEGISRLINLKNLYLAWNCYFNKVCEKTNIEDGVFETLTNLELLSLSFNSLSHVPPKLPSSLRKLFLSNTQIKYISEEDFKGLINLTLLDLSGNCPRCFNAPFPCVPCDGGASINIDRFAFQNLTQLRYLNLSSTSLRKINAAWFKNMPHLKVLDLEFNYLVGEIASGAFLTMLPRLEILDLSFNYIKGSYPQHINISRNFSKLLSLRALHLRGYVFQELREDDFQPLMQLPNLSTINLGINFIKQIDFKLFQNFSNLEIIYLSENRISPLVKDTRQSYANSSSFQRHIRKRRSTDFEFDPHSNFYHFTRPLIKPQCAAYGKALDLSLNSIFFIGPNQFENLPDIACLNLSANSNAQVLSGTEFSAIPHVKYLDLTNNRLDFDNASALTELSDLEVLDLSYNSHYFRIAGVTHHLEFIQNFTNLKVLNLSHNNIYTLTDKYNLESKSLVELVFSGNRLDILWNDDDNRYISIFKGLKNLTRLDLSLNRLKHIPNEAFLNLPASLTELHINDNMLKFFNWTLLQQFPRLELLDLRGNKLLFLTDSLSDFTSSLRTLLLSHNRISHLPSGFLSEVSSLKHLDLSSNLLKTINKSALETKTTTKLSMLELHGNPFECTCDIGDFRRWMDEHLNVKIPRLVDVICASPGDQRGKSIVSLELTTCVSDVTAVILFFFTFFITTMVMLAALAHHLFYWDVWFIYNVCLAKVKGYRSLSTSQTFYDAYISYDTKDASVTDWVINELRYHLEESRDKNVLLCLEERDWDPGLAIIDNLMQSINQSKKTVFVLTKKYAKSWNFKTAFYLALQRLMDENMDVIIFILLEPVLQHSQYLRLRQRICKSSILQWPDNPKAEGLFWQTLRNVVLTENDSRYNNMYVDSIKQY
Format: cell-based
How it was run: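 Human TLR7/8/9 HEK-Blue reporter lines; dose range 0.05 nM–50 μM; 30 min RT preincubation; stimulus gardiquimod 7.5 μM / R848 15.9 μM / ODN2006 5 nM respectively; 22 h, 37 °C; SEAP detected colorimetrically.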

| Compound | IC50 |
| --- | --- |
| COc1c(C)c(-c2cc3[nH]c(=O)n(C4CCC(N5CCC6(CC5)COC6)CC4)c3cc2C(C)C)cn2ncnc12 (single isomer, unassigned) [Example 267, 1-(4-(2-oxa-7-azaspiro[3.5]nonan-7-yl)cyclohexyl)-6-isopropyl-5-(8-methoxy-7-methyl-[1,2,4]triazolo[1,5-a]pyridin-6-yl)-1,3-dihydro-2H-benzo[d]imidazol-2-one] | 0.12 nM |
| COc1cc(-c2cc3[nH]c(=O)n(C4CCC(N5CC6(COC6)C5)CC4)c3cc2C(C)C)cn2ncnc12 (centres unmarked) [Example 254, 1-(4-(2-oxa-6-azaspiro[3.3]heptan-6-yl)cyclohexyl)-6-isopropyl-5-(8-methoxy-[1,2,4]triazolo[1,5-a]pyridin-6-yl)-1,3-dihydro-2H-benzo[d]imidazol-2-one] | 3.38 nM |
| COc1cc(-c2cc3[nH]c(=O)n(C4CCC(N5CCC(S(C)(=O)=O)C5)CC4)c3cc2C(C)C)cn2ncnc12 (single isomer, unassigned) [Example 289, 6-isopropyl-5-(8-methoxy-[1,2,4]triazolo[1,5-a]pyridin-6-yl)-1-(4-(3-(methylsulfonyl)pyrrolidin-1-yl)cyclohexyl)-1,3-dihydro-2H-benzo[d]imidazol-2-one] | 4.44 nM |
| COc1cc(-c2cc3[nH]c(=O)n(C4CCC(N5C6CCC5COC6)CC4)c3cc2C(C)C)cn2ncnc12 (single isomer, unassigned) [Example 253, 1-(4-(3-oxa-8-azabicyclo[3.2.1]octan-8-yl)cyclohexyl)-6-isopropyl-5-(8-methoxy-[1,2,4]triazolo[1,5-a]pyridin-6-yl)-1,3-dihydro-2H-benzo[d]imidazol-2-one] | 4.33 nM |
| Cc1c(-c2cc3[nH]c(=O)n([C@@H]4CCCNC4)c3cc2C(C)C)cn2ncnc2c1C [119 FC, (R)-5-(7,8-dimethyl-[1,2,4]triazolo[1,5-a]pyridin-6-yl)-6-isopropyl-1-(piperidin-3-yl)-1,3-dihydro-2H-benzo[d]imidazol-2-one] | 7.17 nM |
| Cc1c(-c2cc3[nH]c(=O)n(C4CCC(N5CCCC(F)C5)CC4)c3cc2C(C)C)cn2ncnc2c1C (centres unmarked) [Example 273, 5-(7,8-dimethyl-[1,2,4]triazolo[1,5-a]pyridin-6-yl)-1-(4-(3-fluoropiperidin-1-yl)cyclohexyl)-6-isopropyl-1,3-dihydro-2H-benzo[d]imidazol-2-one] | 0.87 nM |
| COc1cc(-c2cc3[nH]c(=O)n(C4CCC(N5CCC(S(C)(=O)=O)C5)CC4)c3cc2C(C)C)cn2ncnc12 (single isomer, unassigned) [Example 288, 6-isopropyl-5-(8-methoxy-[1,2,4]triazolo[1,5-a]pyridin-6-yl)-1-(4-(3-(methylsulfonyl)pyrrolidin-1-yl)cyclohexyl)-1,3-dihydro-2H-benzo[d]imidazol-2-one] | 0.75 nM |
| COc1cc(-c2ccc3c(c2)[nH]c(=O)n3C2CCNCC2)cn2ncnc12 [1 EI, 5-(8-methoxy-[1,2,4]triazolo[1,5-a]pyridin-6-yl)-1-(piperidin-4-yl)-1,3-dihydro-2H-benzo[d]imidazol-2-one] | > 3130 nM |
| COc1c(C)c(-c2cc3[nH]c(=O)n(C4CCC(N5CCCOCC5)CC4)c3cc2C(C)C)cn2ncnc12 (single isomer, unassigned) [Example 261, 1-(4-(1,4-oxazepan-4-yl)cyclohexyl)-6-isopropyl-5-(8-methoxy-7-methyl-[1,2,4]triazolo[1,5-a]pyridin-6-yl)-1,3-dihydro-2H-benzo[d]imidazol-2-one] | 2.23 nM |
| Cc1cc2c(cc1-c1cc(C)c3ncnn3c1)[nH]c(=O)n2[C@H]1CC[C@@H](NC2CCOCC2)CC1 [Example 30, 6-methyl-5-(8-methyl-[1,2,4]triazolo[1,5-a]pyridin-6-yl)-1-((1s,4s)-4-((tetrahydro-2H-pyran-4-yl)amino)cyclohexyl)-1,3-dihydro-2H-benzo[d]imidazol-2-one] | 3.12 nM |
| COc1c(C)c(-c2cc3[nH]c(=O)n(C4CCC(N5CC(OC)C5)CC4)c3cc2C(C)C)cn2ncnc12 (centres unmarked) [Example 266, 6-isopropyl-5-(8-methoxy-7-methyl-[1,2,4]triazolo[1,5-a]pyridin-6-yl)-1-(4-(3-methoxyazetidin-1-yl)cyclohexyl)-1,3-dihydro-2H-benzo[d]imidazol-2-one] | 4.47 nM |
| Cc1cc2c(cc1-c1cc(C)c3ncnn3c1)[nH]c(=O)n2C1CCCNC1 (centres unmarked) [1 EC, 6-methyl-5-(8-methyl-[1,2,4]triazolo[1,5-a]pyridin-6-yl)-1-(piperidin-3-yl)-1,3-dihydro-2H-benzo[d]imidazol-2-one] | 22.5 nM |
| Cc1cc2c(cc1-c1cc(C)c3ncnn3c1)[nH]c(=O)n2[C@@H]1CCCN(C2CCOCC2)C1 [Example 27, (R)-6-methyl-5-(8-methyl-[1,2,4]triazolo[1,5-a]pyridin-6-yl)-1-(1-(tetrahydro-2H-pyran-4-yl)piperidin-3-yl)-1,3-dihydro-2H-benzo[d]imidazol-2-one] | 50 nM |
| Cc1c(-c2cc3[nH]c(=O)n(C4CCC(N5CC6(COC6)C5)CC4)c3cc2C(C)C)cn2ncnc2c1C (single isomer, unassigned) [Example 298] | 3.76 nM |
| COCCNC1CCC(n2c(=O)[nH]c3cc(-c4cn5ncnc5c(OC)c4C)c(C(C)C)cc32)CC1 (centres unmarked) [Example 258] | 0.6 nM |
| COC[C@@H]1CCN(C2CCC(n3c(=O)[nH]c4cc(-c5cc(OC)c6ncnn6c5)c(C(C)C)cc43)CC2)C1 (single isomer, unassigned) [Example 290] | 0.53 nM |
| COc1c(C)c(-c2cc3[nH]c(=O)n(C4CCC(N5CC(OC)C5)CC4)c3cc2C(C)C)cn2ncnc12 (centres unmarked) [Example 265, 6-isopropyl-5-(8-methoxy-7-methyl-[1,2,4]triazolo[1,5-a]pyridin-6-yl)-1-(4-(3-methoxyazetidin-1-yl)cyclohexyl)-1,3-dihydro-2H-benzo[d]imidazol-2-one] | 2.72 nM |
| COc1cc(-c2cc3[nH]c(=O)n(C4CCC(N5CCC(F)(F)CC5)CC4)c3cc2C(C)C)cn2ncnc12 (single isomer, unassigned) [Example 247, 1-(4-(4,4-difluoropiperidin-1-yl)cyclohexyl)-6-isopropyl-5-(8-methoxy-[1,2,4]triazolo[1,5-a]pyridin-6-yl)-1,3-dihydro-2H-benzo[d]imidazol-2-one] | 0.7 nM |
| Cc1cc2c(cc1-c1cc(C)c3ncnn3c1)[nH]c(=O)n2[C@H]1CC[C@@H](N)CC1 [1 EE] | 31.8 nM |
| Cc1c(-c2cc3[nH]c(=O)n(C4CCC(N5CC(F)C5)CC4)c3cc2C(C)C)cn2ncnc2c1C (centres unmarked) [Example 279, 5-(7,8-dimethyl-[1,2,4]triazolo[1,5-a]pyridin-6-yl)-1-(4-(3-fluoroazetidin-1-yl)cyclohexyl)-6-isopropyl-1,3-dihydro-2H-benzo[d]imidazol-2-one] | 1.52 nM |
| Cc1c(-c2cc3[nH]c(=O)n(C4CCC(N5CCCC(F)C5)CC4)c3cc2C(C)C)cn2ncnc2c1C (centres unmarked) [Example 274, 5-(7,8-dimethyl-[1,2,4]triazolo[1,5-a]pyridin-6-yl)-1-(4-(3-fluoropiperidin-1-yl)cyclohexyl)-6-isopropyl-1,3-dihydro-2H-benzo[d]imidazol-2-one] | 1.09 nM |
| COc1cc(-c2cc3[nH]c(=O)n(C4CCC(N5CC(F)(F)C5)CC4)c3cc2C(C)C)cn2ncnc12 (single isomer, unassigned) [Example 296] | 3.4 nM |
| Cc1cc2c(cc1-c1cc(C)c3ncnn3c1)[nH]c(=O)n2[C@H]1CC[C@@H](NCCC(F)(F)F)CC1 [Example 31] | 1.32 nM |
